Experimental data: patent US20130040390A1, “CULTURE MEDIUM SUPPLEMENT AND USE THEREOF” (GUANGZHOU INSTITUTES OF BIOMEDICINE AND HEALTH, CHINESE …, priority 2010, published 2013)

Legend:
Type in all cases: cell-based, mouse
[1] = system: Oct4-GFP MEFs; assay: iPS efficiency test: MEFs infected with SKO viruses, reprogrammed clones counted / GFP cell ratio by FCM; settings: for recommended working concentration: from dose-response in Basal3.0, day 10; for effect on the iCD1 reprogramming efficiency: added to iCD1: A83-01 0.5 μM, valproic acid 1 mM, 2% fetal bovine serum; for effect on the reprogramming efficiency: ingredient left out of iCD1, clones at day 8 after SKO infection
Text: Somatic cell type used in reprogramming is OG2 MEFs of no more than 3 passages. OG2 mice are transgenic mice with green fluorescent protein (GFP) gene linked after the promoter of Oct4 gene specifically expressed by stem cell. At a later stage of the reprogramming, endogenous Oct4 of OG2 MEF is activated, and the green fluorescent protein is concomitantly expressed, so the cells or reprogrammed clones appear green when observed under a fluorescence microscope. The reprogramming efficiencies under different conditions can be compared by a research by directly counting the reprogrammed clones, that is, the green fluorescent clones under a fluorescence microscope, or by analyzing the ratio of the green fluorescent cells through flow cytometry (FCM).
Cell assay and preparation of viruses are as follows. […] 6-18 hrs after the cell seeding, the cells are infected with the viruses carrying a mouse reprogramming factor according to the cell density and state. The infection is carried out in two rounds, 24 hrs after the first round of infection, the second round of infection is carried out, and the virus fluid is replaced by various test media 24 hrs after the second round of infection. The day of replacing the virus fluid is recorded as day 0 (D0), and the GFP fluorescent clones are counted in the original wells or the ratio of the GFP fluorescent cells are analyzed by flow cytometry (FCM) at different times after infection as desired.
The preparation of virus includes transfecting virus packaging cells (PlatE) with reprogramming factor plasmid cloned onto a PMX vector, refreshing the culture media 12-16 hrs after infection, using the culture collected 48 hrs after the transfection as a virus fluid for the first infection, and using the additional culture collected 24 hrs after adding fresh culture as a virus fluid for the second infection. […]

[2] = system: Oct4-GFP MEFs; assay: Growth curves of SKO-infected embryonic fibroblasts in iCD1 lacking single ingredients; settings: ingredient left out of iCD1, cells counted at D0, day 3, day 6
Text: In order to determine whether the effects of the above six substances on reprogramming are cell growth dependent or independent, growth curves of the embryonic fibroblasts infected with reprogramming factor SKO and then cultured respectively in 9 culture states including iCD1, iCD1 without vitamin C, iCD1 without bFGF, iCD1 without CHIR99021, iCD1 without lithium chloride, iCD1 without vitamin B12, iCD1 without thiamine, iCD1 without all of the six ingredients, and mES were plotted. 2×10^4 initial Oct4-GFP MEFs were infected with SKO viruses, and then cultured respectively in the above 9 culture media. The cells were digested respectively at the day of infection and medium replacement (day D0) and days 3 and 6 after infection, and the cells per well were counted. The replications n in each group of test are 3, and the error bar represents standard deviation (SD).

[3] = system: Oct4-GFP MEFs; assay: iPS efficiency test: MEFs infected with SKO viruses, reprogrammed clones counted / GFP cell ratio by FCM; settings: 1×10^4 MEFs, clones at day 10

Molecule | recommended working concentration [1] | effect on the reprogramming efficiency [1] | also measured
O=C(O)CCCC[C@@H]1CCSS1 (racemic) [lipoic acid] | 0.2 µg/mL | – | –
Cc1cccc(-c2nn(C(=S)Nc3ccccc3)cc2-c2ccnc3ccccc23)n1 [A83-01, reference compound] | – | – | effect on the iCD1 reprogramming efficiency ([1]; clones at day 10): cannot further improve the iCD1 reprogramming efficiency
Cc1c[nH]c(-c2cnc(NCCNc3ccc(C#N)cn3)nc2-c2ccc(Cl)cc2Cl)n1 [CHIR99021, reference compound] | – | especially remarkable | effect on reprogramming efficiency of Basal3.0 ([1]; added to Basal3.0, clone number and cell ratio as indexes): can significantly improve the reprogramming efficiency; effect of high dose on the reprogramming efficiency ([1]; in iCD1, 0-12 μmol/ml, clones at day 10): inhibition effect on the reprogramming efficiency; effect on cell growth [2]: different degrees of effects on cell growth; optimum effect concentration ([3]; in iCD1, 0-12 μmol/ml): about 3 mM
NCCO [ethanolamine] | 1 µg/mL | – | –
CCCCC/C=C\C/C=C\CCCCCCCC(=O)O [linoleic acid] | 1 µg/mL | – | –
[Cl-].[Li+] [lithium chloride, Lithium chloride] | 5 mmol/mL | have effects on the reprogramming efficiency | –
N[C@@H](CCC(=O)N[C@@H](CS)C(=O)NCC(=O)O)C(=O)O [reduced glutathione] | – | – | recommended working concentration ([1]; anti-oxidants): 1500 µg/mL
Cc1ncc(C[n+]2csc(CCO)c2C)c(N)n1 [thiamine] | – | have effects on the reprogramming efficiency | recommended working concentration ([1]; anti-oxidants): 9000 µg/mL
CCCC(CCC)C(=O)O [valproic acid (VPA), valproic acid, reference compound] | – | – | effect on the iCD1 reprogramming efficiency ([1]; clones at day 10): cannot further improve the iCD1 reprogramming efficiency
O=C1O[C@H]([C@@H](O)CO)C(O)=C1O [vitamin C, ascorbic acid] | 50 µg/mL | especially remarkable | concentration above which an increase has no obvious improvement effect on the reprogramming efficiency ([1]; in iCD1, 0-100 μg/ml, 2×10^4 MEFs, clones at day 10): higher than 25 μg/ml; effect on cell growth [2]: no obvious effect on cell growth
EGF: epidermal growth factor | – | – | effect on reprogramming (receptor tyrosine kinase family growth factor) ([1]; added to iCD1 without receptor tyrosine kinase, clones at day 10): can also promote the reprogramming
bFGF: basic fibroblast growth factor | 0.005 µg/mL | especially remarkable | period of the reprogramming in which it mainly plays a role ([1]; added to iCD1 at different times from days 0 to 10, clones at day 10, n=6): 0 to 8 days; effect on cell growth [2]: different degrees of effects on cell growth; final concentration above which an increase has no obvious improvement effect on the reprogramming efficiency ([3]; in iCD1, 0-10 ng/ml): higher than 5 ng/ml
insulin: recombinant human insulin (SIGMA Inc.) preferred | 50 µg/mL | – | –
vitamin A | 0.1 µg/mL | – | –
vitamin B12 | 1.4 µg/mL | have effects on the reprogramming efficiency | –
vitamin E | – | – | recommended working concentration ([1]; anti-oxidants): 1000 µg/mL
